{"source": "paper PMC5829251", "about": "“NAD^+ analog reveals PARP-1 substrate-blocking mechanism and allosteric communication from catalytic center to DNA-binding domains” (Nature Communications, 2018)", "key": {"[1]": {"molecular_target": "T1, PARP-1 triple mutant E763/D766/D770A (Homo sapiens, UniProt P09874, D766A/D770A/E763A)", "T1 construct": "Full-length PARP-1 WT (residues 1–1014) was cloned in pET28 vector and site-directed mutagenesis was performed; made in house; host or cells: E. coli", "T1 sequence (P09874 whole entry E763A/D766A/D770A, the tested form may be a part)": "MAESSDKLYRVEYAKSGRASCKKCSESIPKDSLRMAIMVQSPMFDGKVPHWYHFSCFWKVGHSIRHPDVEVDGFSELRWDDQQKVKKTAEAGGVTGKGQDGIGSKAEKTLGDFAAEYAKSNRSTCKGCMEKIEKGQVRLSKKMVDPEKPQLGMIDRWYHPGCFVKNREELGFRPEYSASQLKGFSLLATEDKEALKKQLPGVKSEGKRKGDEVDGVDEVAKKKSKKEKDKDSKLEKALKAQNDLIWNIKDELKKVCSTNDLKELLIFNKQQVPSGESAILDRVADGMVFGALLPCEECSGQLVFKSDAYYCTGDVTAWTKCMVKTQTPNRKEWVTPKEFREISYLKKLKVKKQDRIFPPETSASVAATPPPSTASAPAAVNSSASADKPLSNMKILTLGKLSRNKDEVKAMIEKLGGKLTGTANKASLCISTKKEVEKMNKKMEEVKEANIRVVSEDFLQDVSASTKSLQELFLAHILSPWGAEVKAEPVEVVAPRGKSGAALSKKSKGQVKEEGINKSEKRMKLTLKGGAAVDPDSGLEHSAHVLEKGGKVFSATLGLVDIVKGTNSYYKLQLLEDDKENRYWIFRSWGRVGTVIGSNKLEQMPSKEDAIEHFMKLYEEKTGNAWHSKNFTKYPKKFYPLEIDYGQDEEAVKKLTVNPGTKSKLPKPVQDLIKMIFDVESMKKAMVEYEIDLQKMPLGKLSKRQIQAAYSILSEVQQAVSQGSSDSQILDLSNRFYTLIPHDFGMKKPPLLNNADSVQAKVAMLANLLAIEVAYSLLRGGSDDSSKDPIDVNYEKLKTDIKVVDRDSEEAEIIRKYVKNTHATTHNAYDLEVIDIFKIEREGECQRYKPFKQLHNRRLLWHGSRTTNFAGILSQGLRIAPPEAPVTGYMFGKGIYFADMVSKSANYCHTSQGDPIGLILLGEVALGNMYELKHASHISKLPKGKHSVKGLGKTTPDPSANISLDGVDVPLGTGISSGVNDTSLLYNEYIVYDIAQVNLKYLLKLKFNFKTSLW", "assay": "DSF, full-length PARP-1 E763/D766/D770A", "assay_type": "binding", "settings": "BAD 1250 μM", "protocol": "(§1) DSF experiments were performed as described, [13] using 5 µM protein, 2.5 µM DNA when indicated and various concentrations of compound (BAD, carba-NAD^+, benzamide, and ADP-ribose) as indicated in Fig. 1 and Fig. 3. Experiments were performed on a Roche LightCycler 480 RT-PCR. Reactions including DNA were performed with a 26- or 28-base pair (bp) unphosphorylated oligonucleotide for PARP-1, a 28-bp 5´-phosphorylated (5´P) oligonucleotide for PARP-2, and a 47-bp oligonucleotide including a central 5´P nick for PARP-3^13 in the following buffer: 25 mM Hepes pH 8.0, 150 mM NaCl, 1 mM EDTA, and 0.1 mM TCEP. Reactions with PARP-3 were conducted at lower ionic strength to allow binding to DNA as described (25 mM Hepes pH 8.0, 50 mM NaCl, 1 mM EDTA and 0.1 mM TCEP)[13]. ΔTM values were calculated by subtracting the TM determined for the protein in the absence of compound from the TM determined in the presence of compound. Experiments were performed in triplicate and a Boltzmann sigmoid was fit to the data to determine the TM values (KaleidaGraph)."}, "[2]": {"molecular_target": "T2, PARP-3 (Homo sapiens, UniProt Q9Y6F1)", "T2 construct": "PARP-3 (isoform b, residues 1–533) was cloned in pDEST17 vector; made in house", "T2 sequence (Q9Y6F1 1-533)": "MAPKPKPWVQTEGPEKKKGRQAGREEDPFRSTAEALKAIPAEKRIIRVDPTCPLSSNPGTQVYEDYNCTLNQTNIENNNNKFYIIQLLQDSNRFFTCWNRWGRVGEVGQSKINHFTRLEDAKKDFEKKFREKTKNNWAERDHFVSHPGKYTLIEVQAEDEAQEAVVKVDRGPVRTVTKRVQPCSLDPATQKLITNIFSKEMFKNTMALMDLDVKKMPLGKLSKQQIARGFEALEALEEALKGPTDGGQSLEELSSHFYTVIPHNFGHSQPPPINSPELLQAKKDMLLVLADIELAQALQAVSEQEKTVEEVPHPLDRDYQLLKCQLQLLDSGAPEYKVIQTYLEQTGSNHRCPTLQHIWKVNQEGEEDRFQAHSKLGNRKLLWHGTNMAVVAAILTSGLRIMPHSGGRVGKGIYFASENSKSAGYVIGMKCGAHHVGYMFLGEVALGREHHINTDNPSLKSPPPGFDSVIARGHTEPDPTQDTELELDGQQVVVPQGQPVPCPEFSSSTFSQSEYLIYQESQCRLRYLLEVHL", "assay": "DSF, full-length PARP-3 with or without DNA", "assay_type": "binding", "settings": "for TM: Figure 3c, BAD 1250 μM, in °C (unit assumed)", "protocol": "as §1"}, "[3]": {"system": "PARP-1 ΔHD", "assay": "Fluorescence polarization DNA competition assay, PARP-1 ΔHD", "assay_type": "binding, human", "settings": "40 nM PARP-1 ΔHD, 20 nM labeled DNA, BAD 500 μM", "protocol": "For the DNA competition assay, 40 nM PARP-1 WT, or PARP-1 ΔHD, was incubated with 20 nM of dumbbell DNA with a central nick carrying an internal fluorescent FAM group (5′-GCT GAG C/FAMT/T CTGGTGAAGCTCAGCTCGCGGCAGCTGGTGCTGCCGCGA-3′) for 30 min at RT in 12 mM Hepes pH 8.0, 60 mM KCl, 8 mM MgCl2, 4% glycerol, 5.7 mM beta-mercaptoethanol, 0.05 mg per ml bovine serm albumin with or without BAD or benzamide (500 μM). A competitor unlabeled DNA of the same sequence was added at 100 nM and FP was measured over time on a VictorV plate reader (Perkin Elmer). For the DNA affinity measurement assay, increasing concentrations of PARP-1 WT were incubated for 30 min at RT with 5 nM of dumbbell DNA probe carrying a nick (described above) in the absence or presence of BAD or benzamide (100 μM) in the following buffer: 12 mM Hepes pH 8.0, 250 mM NaCl, 4% glycerol, 5.7 mM beta-mercaptoethanol, 0.05 mg per ml bovine serum albumin."}}, "data": [{"smiles": "NC(=O)c1cccc(C2OC(COP(=O)(O)OP(=O)(O)OCC3OC(n4cnc5c(N)ncnc54)C(O)C3O)C(O)C2O)c1", "note": "(stereo not drawn) [BAD, benzamide adenine dinucleotide]", "values": [{"measurement": "TM", "setting": "[1]; Figure 3a, no DNA, TM without BAD 45.74, in °C (unit assumed)", "value": 50.13}, {"measurement": "TM change in the presence of BAD", "setting": "[1]; did not require the presence of DNA", "value": "increase in TM"}, {"measurement": "TM", "setting": "[2]; PARP-3, no DNA, TM without BAD 35.81", "value": 35.54}, {"measurement": "TM", "setting": "[2]; PARP-3 with DNA (2.5 μM, 47-bp duplex with central 5'P nick), TM without BAD 39.70", "value": 41.02}, {"measurement": "evidence of BAD binding in the DSF assay", "setting": "[2]; PARP-3, with or without DNA bearing 5'P", "value": "only showed evidence of BAD binding in the presence of activating DNA"}, {"measurement": "release of full-length PARP-1 ΔHD from the labeled DNA", "setting": "[3]", "value": "did not prevent the rapid release"}]}]}
